These results are taken from patent US20250074892A1, “CARBONYL BRIDGED HETEROCYCLIC COMPOUND, AND COMPOSITION AND APPLICATION THEREOF” (BEIJING SCITECH-MQ PHARMACEUTICALS LIMITED, priority 2022, published 2025).

Experiment [1] relates to HT29 cells. Kind of experiment: Inhibition of cell necrosis (CCK8 method), HT29 cells. Type of experiment: cell-based, human. To be noted: Homo sapiens, HT-29, 16 h, HT29, Human TNF-α/AT-406/Z-VAD-FMK, 16 hours, CCK8. The procedure: (§1) In this assay example 2, under the condition of inducing programmed cell necrosis of HT29 and L929 cell lines, different concentrations of the test compounds were added to test the IC50 of the rescue effect of the test compounds on the programmed necrosis.
(§2) • Compounds: dissolved in DMSO to make a 10 mM solution; • TNF-α: initial concentration of 100 µg/mL; • Z-VAD-FMK: dissolved in DMSO to make a 10 mM solution; • AT-406: dissolved in DMSO to make a 10 mM solution. • Cell lines: HT29 cells were cultured in McCoy's 5A medium containing 10% fetal bovine serum, 100 U/mL penicillin, and 100 µg/mL streptomycin, and L929 cells were cultured in MEM medium containing 10% horse serum, 100 U/mL penicillin, and 100 µg/mL streptomycin.
(§3) 1. The test compound was dissolved in DMSO to form a stock solution, and a gradient dilution was performed; the solution was then diluted with the corresponding culture medium to obtain a solution with 10 times the working concentration.
(§4) 2. The cells in the logarithmic growth phase were diluted with culture medium to a specific cell concentration. 80 µL of the cell suspension was added to a 96-well plate, so that the cell densities of HT29 and L929 were 1.2*10^4 cells/well and 2.0*10^4 cells/well, respectively. The plate was cultured in a 37° C., 5% carbon dioxide incubator overnight.
(§5) 3. […] of the compound solution was added to each well of the 96-well plate inoculated with cells. The compounds to be tested were serially diluted 4-fold to obtain 9 concentrations in duplicate, starting from a maximum concentration of 10 μM. At the same time, a control group without compound addition was set up.
(§6) 4. After the cells were cultured for another 30 minutes, 10 μL of the inducer mixture was added to each well. The final concentrations of Human TNF-α, AT-406 and Z-VAD-FMK in HT29 cells were 20 ng/mL, […] and 20 μM, respectively; and the final concentrations of Murine TNF-α and Z-VAD-FMK in L929 cells were 20 ng/mL and 25 μM, respectively.
(§7) 5. The 96-well plate in which compounds and inducer were added was placed in a 37° C., 5% carbon dioxide incubator for further culture, wherein HT29 cells were cultured for 16 hours and L929 cells were cultured for 4-8 hours. Cell viability was detected by CCK8. GraphPad Prism software was used to prepare a dose-effect curve and IC50 was calculated.
Background: Tetrazolium dyes change colour on reduction, which living cells bring about.

Experiment [2] concerns L929 cells. The experiment is described as follows: Inhibition of cell necrosis (CCK8 method), L929 cells. Type of experiment: cell-based, mouse. To be noted: 4-8 hours, CCK8. Here is the method:
as §1, §2, §3, §4, §5, §6, §7

[3] abbreviates: Mus musculus, L929, L929, Murine TNF-α/Z-VAD-FMK.

The structures appear in SMILES notation.

For `CC(C)(O)CCOc1ccc(F)c(-c2ccnc(N3CCC(C(=O)N4N=CCC4c4cc(F)cc(F)c4)CC3)c2)c1` (racemic) [Example 21, (5-(3,5-difluorophenyl)-4,5-dihydro-1H-pyrazol-1-yl)(1-(4-(2-fluoro-5-(3-hydroxy-3-methylbutoxy)phenyl)pyridin-2-yl)piperidin-4-yl)methanone], the IC50 was ≤ 10 nM in experiment [1] and 10 to 50 nM in experiment [2] (setting [3]).

For the compound `CC(C)(O)COc1ccc(F)c(-c2ccnc(N3CCC(C(=O)N4N=CCC4c4cc(F)cc(F)c4)CC3)c2)c1` (racemic) [Example 23, (5-(3,5-difluorophenyl)-4,5-dihydro-1H-pyrazol-1-yl)(1-(4-(2-fluoro-5-(2-hydroxy-2-methylpropoxy)phenyl)pyridin-2-yl)piperidin-4-yl)methanone], the IC50 in experiment [1] and in experiment [2] (setting [3]) was ≤ 10 nM throughout.

Regarding `CC(C)(O)CCCOc1ccc(F)c(-c2ccnc(N3CCC(C(=O)N4N=CCC4c4cc(F)cc(F)c4)CC3)c2)c1` (racemic) [Example 24, (5-(3,5-difluorophenyl)-4,5-dihydro-1H-pyrazol-1-yl)(1-(4-(2-fluoro-5-((4-hydroxy-4-methylpentyl)oxy)phenyl)pyridin-2-yl)piperidin-4-yl)methanone], the values for the IC50 in experiment [1] and in experiment [2] (setting [3]) were ≤ 10 nM and 10 to 50 nM, respectively.

Take `CC(C)(O)CCOc1ccc(F)c(-c2ccnc(N3CCC(C(=O)N4N=CC[C@H]4c4cc(F)cc(F)c4)CC3)c2)c1` (racemic) [Example 41]: the IC50 was ≤ 10 nM in experiment [1] and 10 to 50 nM in experiment [2] (setting [3]).

Turning to `CC(C)(O)CCCOc1ccc(F)c(-c2ccnc(N3CCC(C(=O)N4N=CC[C@H]4c4cc(F)cc(F)c4)CC3)c2)c1` (racemic) [Example 43], the IC50 is ≤ 10 nM in experiment [1] and 10 to 50 nM in experiment [2] (setting [3]).

Consider `COCCOc1cccc(-c2ccnc(N3CCC(C(=O)N4N=CCC4c4cc(F)cc(F)c4)CC3)c2)c1` (stereo not drawn) [Example 1, (5-(3,5-difluorophenyl)-4,5-dihydro-1H-pyrazol-1-yl)(1-(4-(3-(2-methoxyethoxy)phenyl)pyridin-2-yl)piperidin-4-yl)methanone], for which the IC50 in experiment [1] was 10 to 50 nM; in experiment [2] (setting [3]) it was 50 to 100 nM.

On to `COCCCOc1cccc(-c2ccnc(N3CCC(C(=O)N4N=CCC4c4cc(F)cc(F)c4)CC3)c2)c1` (stereo not drawn) [Example 2, (5-(3,5-difluorophenyl)-4,5-dihydro-1H-pyrazol-1-yl)(1-(4-(3-(3-methoxypropoxy)phenyl)pyridin-2-yl)piperidin-4-yl)methanone], for which the IC50 in experiment [1] lay within 10 to 50 nM; in experiment [2] (setting [3]), 50 to 100 nM.

`O=C(C1CCN(c2cc(-c3cccc(OC4CCOCC4)c3)ccn2)CC1)N1N=CCC1c1cc(F)cc(F)c1` (stereo not drawn) [Example 3, (5-(3,5-difluorophenyl)-4,5-dihydro-1H-pyrazol-1-yl)(1-(4-(3-((tetrahydro-2H-pyran-4-yl)oxy)phenyl)pyridin-2-yl)piperidin-4-yl)methanone]: the concentration for half-maximal inhibition (IC50) was 10 to 50 nM in experiment [1] and 50 to 100 nM in experiment [2] (setting [3]).

Consider `COCCOc1ccc(C)c(-c2ccnc(N3CCC(C(=O)N4N=CCC4c4cc(F)cc(F)c4)CC3)c2)c1` (stereo not drawn) [Example 4, (5-(3,5-difluorophenyl)-4,5-dihydro-1H-pyrazol-1-yl)(1-(4-(5-(2-methoxyethoxy)-2-methylphenyl)pyridin-2-yl)piperidin-4-yl)methanone], for which the IC50 in experiment [1] and in experiment [2] (setting [3]) was 10 to 50 nM each time.

In the case of `COCCCOc1ccc(C)c(-c2ccnc(N3CCC(C(=O)N4N=CCC4c4cc(F)cc(F)c4)CC3)c2)c1` (stereo not drawn) [Example 5, (5-(3,5-difluorophenyl)-4,5-dihydro-1H-pyrazol-1-yl)(1-(4-(5-(3-methoxypropoxy)-2-methylphenyl)pyridin-2-yl)piperidin-4-yl)methanone], the IC50 was 10 to 50 nM in experiment [1] and 50 to 100 nM in experiment [2] (setting [3]).

With `Cc1ccc(OC2CCOCC2)cc1-c1ccnc(N2CCC(C(=O)N3N=CCC3c3cc(F)cc(F)c3)CC2)c1` (stereo not drawn) [Example 6, (5-(3,5-difluorophenyl)-4,5-dihydro-1H-pyrazol-1-yl)(1-(4-(2-methyl-5-((tetrahydro-2H-pyran-4-yl)oxy)phenyl)pyridin-2-yl)piperidin-4-yl)methanone], the IC50 in experiment [1] fell in the range of 10 to 50 nM; in experiment [2] (setting [3]), 50 to 100 nM.

In the case of `O=C(C1CCN(c2cc(-c3cccc(OCCCCO)c3)ccn2)CC1)N1N=CCC1c1cc(F)cc(F)c1` (stereo not drawn) [Example 7, (5-(3,5-difluorophenyl)-4,5-dihydro-1H-pyrazol-1-yl)(1-(4-(3-(4-hydroxybutoxy)phenyl)pyridin-2-yl)piperidin-4-yl)methanone], the IC50 in experiment [1] and in experiment [2] (setting [3]) was 10 to 50 nM in each case.

In the case of `CC(C)(O)CCCOc1cccc(-c2ccnc(N3CCC(C(=O)N4N=CCC4c4cc(F)cc(F)c4)CC3)c2)c1` (stereo not drawn) [Example 8, (5-(3,5-difluorophenyl)-4,5-dihydro-1H-pyrazol-1-yl)(1-(4-(3-((4-hydroxy-4-methylpentyl)oxy)phenyl)pyridin-2-yl)piperidin-4-yl)methanone], the IC50 in experiment [1] and in experiment [2] (setting [3]) was 10 to 50 nM throughout.

For the compound `Cc1ccc(OCCCCO)cc1-c1ccnc(N2CCC(C(=O)N3N=CCC3c3cc(F)cc(F)c3)CC2)c1` (stereo not drawn) [Example 9, (5-(3,5-difluorophenyl)-4,5-dihydro-1H-pyrazol-1-yl)(1-(4-(5-(4-hydroxybutoxy)-2-methylphenyl)pyridin-2-yl)piperidin-4-yl)methanone], the IC50 was in the range of 10 to 50 nM in experiment [1] and 10 to 50 nM in experiment [2] (L929, Murine TNF-α/Z-VAD-FMK).

In the case of `Cc1ccc(OCCCC(C)(C)O)cc1-c1ccnc(N2CCC(C(=O)N3N=CCC3c3cc(F)cc(F)c3)CC2)c1` (stereo not drawn) [Example 10, (5-(3,5-difluorophenyl)-4,5-dihydro-1H-pyrazol-1-yl)(1-(4-(5-((4-hydroxy-4-methylpentyl)oxy)-2-methylphenyl)pyridin-2-yl)piperidin-4-yl)methanone], the IC50 in experiment [1] and in experiment [2] (setting [3]) was ≤ 10 nM throughout.

Turning to `Cc1ccc(OCCC2CCOCC2)cc1-c1ccnc(N2CCC(C(=O)N3N=CCC3c3cc(F)cc(F)c3)CC2)c1` (stereo not drawn) [Example 11, (5-(3,5-difluorophenyl)-4,5-dihydro-1H-pyrazol-1-yl)(1-(4-(2-methyl-5-(2-(tetrahydro-2H-pyran-4-yl)ethoxy)phenyl)pyridin-2-yl)piperidin-4-yl)methanone], the half-inhibitory concentration (IC50) in experiment [1] is 10 to 50 nM; in experiment [2] (setting [3]) it was 50 to 100 nM.

In the case of `O=C(C1CCN(c2cc(-c3cccc(OCCCO)c3)ccn2)CC1)N1N=CCC1c1cc(F)cc(F)c1` (stereo not drawn) [Example 12, (5-(3,5-difluorophenyl)-4,5-dihydro-1H-pyrazol-1-yl)(1-(4-(3-(3-hydroxypropoxy)phenyl)pyridin-2-yl)piperidin-4-yl)methanone], the IC50 was ≤ 10 nM in experiment [1] and 50 to 100 nM in experiment [2] (setting [3]).

As for `COCCCCOc1cccc(-c2ccnc(N3CCC(C(=O)N4N=CCC4c4cc(F)cc(F)c4)CC3)c2)c1` (stereo not drawn) [Example 13, (5-(3,5-difluorophenyl)-4,5-dihydro-1H-pyrazol-1-yl)(1-(4-(3-(4-methoxybutoxy)phenyl)pyridin-2-yl)piperidin-4-yl)methanone], the IC50 was 10 to 50 nM in experiment [1] and 50 to 100 nM in experiment [2] (setting [3]).

With `O=C(C1CCN(c2cc(-c3cccc(OCC4CCOCC4)c3)ccn2)CC1)N1N=CCC1c1cc(F)cc(F)c1` (stereo not drawn) [Example 14, (5-(3,5-difluorophenyl)-4,5-dihydro-1H-pyrazol-1-yl)(1-(4-(3-((tetrahydro-2H-pyran-4-yl)methoxy)phenyl)pyridin-2-yl)piperidin-4-yl)methanone], the IC50 in experiment [1] and in experiment [2] (setting [3]) was 10 to 50 nM in each case.

`Cc1ccc(OCCCO)cc1-c1ccnc(N2CCC(C(=O)N3N=CCC3c3cc(F)cc(F)c3)CC2)c1` (stereo not drawn) [Example 15, (5-(3,5-difluorophenyl)-4,5-dihydro-1H-pyrazol-1-yl)(1-(4-(5-(3-hydroxypropoxy)-2-methylphenyl)pyridin-2-yl)piperidin-4-yl)methanone]: the figures for the IC50 in experiment [1] and in experiment [2] (setting [3]) were ≤ 10 nM and 10 to 50 nM, respectively.

Take `COCCOc1ccc(Cl)c(-c2ccnc(N3CCC(C(=O)N4N=CCC4c4cc(F)cc(F)c4)CC3)c2)c1` (stereo not drawn) [Example 16, (1-(4-(2-chloro-5-(2-methoxyethoxy)phenyl)pyridin-2-yl)piperidin-4-yl)(5-(3,5-difluorophenyl)-4,5-dihydro-1H-pyrazol-1-yl)methanone]: the concentration for half-maximal inhibition (IC50) in experiment [1] lay within 10 to 50 nM; in experiment [2] (setting [3]), 50 to 100 nM.

The term IC50 denotes the point on the concentration scale where inhibition reaches its midpoint. A high value points to a need for much substance.
